ChEMBL document CHEMBL1135178, “Photo-oxygenation of geraniol: synthesis of a novel series of hydroxy-functionalized anti-malarial 1,2,4-trioxanes” (2002)
Converted amounts (≈) assume the structure as drawn.

Columns and labels:
Plasmodium falciparum = assay: Antimalarial activity against Plasmodium falciparum NF54; assay type: functional
Mus musculus [1] = assay: The compound was tested in vivo antimalarial response against multidrug-resistant Plasmodium yoelii in Swiss mice (Mus musculus) at a dose of 48 (mg/kg/day) after 7 days; assay type: functional
Mus musculus [2] = assay: Total number of mice protected out of the 5 tested at a dose of 48 mg/kg/day (Observation till day 10 post-infection); assay type: functional
Mus musculus [3] = assay: (§1) The compound was tested in vivo antimalarial response against multidrug-resistant Plasmodium yoelii in Swiss mice (Mus musculus) at a dose of 48 (mg/kg/day) after 4 day; assay type: functional
Mus musculus [4] = assay: The compound was tested in vivo antimalarial response against multidrug-resistant Plasmodium yoelii in Swiss mice (Mus musculus) at a dose of 48 (mg/kg/day) after 10 days; assay type: functional
Mus musculus [5] = assay: The compound was tested in vivo antimalarial response against multidrug-resistant Plasmodium yoelii in Swiss mice (Mus musculus) at a dose of 96 (mg/kg/day) after 10 days; assay type: functional, organism-based
Mus musculus [6] = assay: Total number of mice protected out of the 5 tested at a dose of 24 mg/kg/day (Observation till day 10 post-infection); assay type: functional
Mus musculus [7] = assay: The compound was tested in vivo antimalarial response against multidrug-resistant Plasmodium yoelii in Swiss mice (Mus musculus) at a dose of 96 (mg/kg/day) after 7 days; assay type: functional, organism-based
Mus musculus [8] = assay: The compound was tested in vivo antimalarial response against multidrug-resistant Plasmodium yoelii in Swiss mice (Mus musculus) at a dose of 96 (mg/kg/day) after 4 day; assay type: functional, organism-based
Mus musculus [9] = assay: The compound was tested in vivo antimalarial response against multidrug-resistant Plasmodium yoelii in Swiss mice (Mus musculus) at a dose of 24 (mg/kg/day) after 7 days; assay type: functional
Mus musculus [10] = assay: Total number of mice protected out of the 5 tested at a dose of 96 mg/kg/day (Observation till day 10 post-infection); assay type: functional
Mus musculus [11] = assay: The compound was tested in vivo antimalarial response against multidrug-resistant Plasmodium yoelii in Swiss mice (Mus musculus) at a dose of 24 (mg/kg/day) after 4 days; assay type: functional
Mus musculus [12] = assay: The compound was tested in vivo antimalarial response against multidrug-resistant Plasmodium yoelii in Swiss mice (Mus musculus) at a dose of 24 mg/kg/day after 10 days; assay type: functional
Mus musculus [13] = assay: as §1; assay type: functional, organism-based

## C[C@@H]1CC[C@H]2[C@@H](C)C(=O)O[C@@H]3O[C@@]4(C)CC[C@@H]1[C@]32OO4 [ARTEMISININ]
Plasmodium falciparum
  MIC: 0.031 µg/mL (≈ 0.11 µM)

## C=C(C)C(O)CCC(=C)C1COC(C)(C)OO1 (stereo unspecified)
Plasmodium falciparum
  MIC: 0.5 µg/mL (≈ 2.06 µM)

## CCN(CC)CCCC(C)Nc1ccnc2cc(Cl)ccc12 (stereo unspecified) [CHLOROQUINE]
Mus musculus [1]
  Parasitemia: 17.6%
Mus musculus [2]
  No. of mice protected: 3
Mus musculus [3]
  Parasitemia: 1.53%
Plasmodium falciparum
  MIC: 0.04 µg/mL (≈ 0.125 µM)
Mus musculus [4]
  Parasitemia: 32.74%

## C=C(C)C(O)CCC(=C)C1COC2(CCCCC2)OO1 (stereo unspecified)
Plasmodium falciparum
  MIC: 0.125 µg/mL (≈ 0.443 µM)

## C=C(C)C(O)CCC(=C)C1COC2(OO1)C1CC3CC(C1)CC2C3 (stereo unspecified)
Mus musculus [5]
  Parasitemia: Nil
Mus musculus [1]
  Parasitemia: 2.04%
Mus musculus [6]
  No. of mice protected: 2
Mus musculus [7]
  Parasitemia: Nil
Mus musculus [2]
  No. of mice protected: 4
Mus musculus [8]
  Parasitemia: Nil
Mus musculus [9]
  Parasitemia: 13.38%
Mus musculus [10]
  No. of mice protected: 5
Mus musculus [11]
  Parasitemia: 2.42%
Mus musculus [12]
  Parasitemia: 28.4%
Plasmodium falciparum
  MIC: 0.031 µg/mL (≈ 0.0927 µM)
Mus musculus [13]
  Parasitemia: Nil
Mus musculus [4]
  Parasitemia: 10.5%

## C=C(CCCO)C1COC2(CCCC2)OO1 (stereo unspecified)
Plasmodium falciparum
  MIC: 0.25 µg/mL (≈ 1.1 µM)

## C=C(C)C(O)CCC(=C)C1COC2(CCCC2)OO1 (stereo unspecified)
Plasmodium falciparum
  MIC: 0.125 µg/mL (≈ 0.466 µM)

## C=C(CCCO)C1COC2(OO1)C1CC3CC(C1)CC2C3 (stereo unspecified)
Plasmodium falciparum
  MIC: 0.125 µg/mL (≈ 0.425 µM)

## C=C(CCCO)C1COC(C)(C)OO1 (stereo unspecified)
Plasmodium falciparum
  MIC: 1 µg/mL (≈ 4.94 µM)

## C=C(CCCO)C1COC2(CCCCC2)OO1 (stereo unspecified)
Plasmodium falciparum
  MIC: 1 µg/mL (≈ 4.13 µM)
